# Test results published in ChEMBL document CHEMBL4184221, “Identification and optimization of soluble epoxide hydrolase inhibitors with dual potency towards fatty acid amide hydrolase” (Bioorg Med Chem Lett, 2018).
# Calls of active or inactive are those of the source. The rule behind the calls is not given here.
# What was measured:
# [1] = target: T1, Bifunctional epoxide hydrolase 2 (Homo sapiens, UniProt P34913); assay: Inhibition of human recombinant soluble epoxide hydrolase expressed in baculovirus-infected High Five cells S9 fraction using CMNPC substrate by fluorescence based assay; assay type: cell-based
# T1 sequence (P34913 whole entry): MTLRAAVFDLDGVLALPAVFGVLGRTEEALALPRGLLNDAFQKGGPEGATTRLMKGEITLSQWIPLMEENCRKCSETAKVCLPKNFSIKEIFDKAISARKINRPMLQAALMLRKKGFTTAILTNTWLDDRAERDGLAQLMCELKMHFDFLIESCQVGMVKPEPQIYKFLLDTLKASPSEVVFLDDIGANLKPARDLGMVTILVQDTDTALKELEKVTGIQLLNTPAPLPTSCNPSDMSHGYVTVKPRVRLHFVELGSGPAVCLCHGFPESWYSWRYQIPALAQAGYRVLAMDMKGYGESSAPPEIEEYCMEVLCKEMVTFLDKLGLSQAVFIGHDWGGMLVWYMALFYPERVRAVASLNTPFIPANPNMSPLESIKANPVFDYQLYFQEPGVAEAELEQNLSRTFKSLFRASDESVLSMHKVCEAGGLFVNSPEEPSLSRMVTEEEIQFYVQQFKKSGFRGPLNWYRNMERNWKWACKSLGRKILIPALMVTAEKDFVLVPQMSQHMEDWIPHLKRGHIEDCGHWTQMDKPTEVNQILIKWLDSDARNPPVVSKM
# [2] = target: T2, Bifunctional epoxide hydrolase 2 (Homo sapiens) (UniProt P34913)
# T2 sequence (whole entry): T1 sequence (P34913 whole entry)
# Equus caballus = species: Equus caballus; assay: (§1) Inhibition of FAAH in horse brain microsomes using OMP substrate by fluorescence based assay; conditions: concentration not given here
# [3] = as §1; parameters: species or system Equus caballus
# Felis catus = species: Felis catus; assay: Inhibition of FAAH in cat brain microsomes using OMP substrate by fluorescence based assay; conditions: concentration not given here
# Canis lupus familiaris = species: Canis lupus familiaris; assay: Inhibition of FAAH in dog brain microsomes using OMP substrate by fluorescence based assay; conditions: concentration not given here
SMILES,IC50 [1] [nM],TDI [2],further results
O=C(Nc1ccc(Oc2ccc(C(=O)O)cc2)cc1)Nc1ccc(OC(F)(F)F)cc1,7,–,–
O=C(Nc1ccc(Cl)cc1)N[C@H]1CC[C@H](Oc2ccc(C(=O)O)cc2)CC1,7,–,–
O=C(NC1CCCCC1)N[C@H]1CC[C@H](Oc2ccc(C(=O)O)cc2)CC1,6,–,–
O=C(Nc1ccc(OC(F)(F)F)cc1)N[C@H]1CC[C@H](Oc2ccc(C(=O)O)cc2)CC1,–,inactive,–
NC(=O)c1cccc(-c2cccc(OC(=O)NC3CCCCC3)c2)c1 [URB-597],1100,Active,inhibition (Equus caballus): > 80%; IC50 [3]: 7 nM; inhibition (Felis catus): > 80%; inhibition (Canis lupus familiaris): > 80%
